Data on three compounds can be found in publication PMC9969401, “Discovery of 2-(3-Benzamidopropanamido)thiazole-5-carboxylate Inhibitors of the Kinesin HSET (KIFC1) and the Development of Cellular Target Engagement Probes” (Journal of Medicinal Chemistry, 2023).

Data set [1] deals with T1, GST-tagged Eg5 motor domain (Homo sapiens, UniProt P52732).
T1 construct: 4 nM GST-tagged Eg5 motor domain protein (Cytoskeleton, EG01); purchased Cytoskeleton EG01
T1 sequence (P52732 18-359 limits assumed): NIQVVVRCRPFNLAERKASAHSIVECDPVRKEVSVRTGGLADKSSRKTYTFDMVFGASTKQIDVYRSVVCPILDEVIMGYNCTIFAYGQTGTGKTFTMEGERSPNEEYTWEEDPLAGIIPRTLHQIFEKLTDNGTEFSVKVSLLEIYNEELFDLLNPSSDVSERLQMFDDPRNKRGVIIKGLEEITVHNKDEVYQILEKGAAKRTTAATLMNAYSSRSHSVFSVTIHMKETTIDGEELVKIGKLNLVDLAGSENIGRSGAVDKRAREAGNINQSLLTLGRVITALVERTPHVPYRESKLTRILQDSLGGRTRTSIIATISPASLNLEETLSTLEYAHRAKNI
In words: ADP-Glo Eg5 assay (4.8 μM ATP). Type of data set: biochemical. The note with it: preformed microtubules, 4.8 μM ATP (Table 4). The procedure:
(§1) The HSET or Eg5 ATPase activity was measured using the ADP-Glo Kinase Assay kit (Promega, V9102). The assays were run using final concentrations of 5 nM full-length human N-terminal His-tag HSET or 4 nM GST-tagged Eg5 motor domain protein (Cytoskeleton, EG01) and an assay buffer containing 20 mM HEPES pH 6.8, 10 mM MgCl2, 0.25 mM EGTA, 0.4 mM Triton X-100, and 1 mM DTT. Preformed microtubules (Universal Biologicals Cambridge, bovine MT001-XL, or porcine MT002-XL), which were reconstituted in 15 mM PIPES pH 7, 1 mM MgCl2, and 20 μM paclitaxel, were present at a final assay concentration of 70 μg/mL. A reaction volume of 5 μL was used in Proxiplate 384 plus white assay plates (PerkinElmer, 6008280). To measure compound inhibition, 100 nL of compound dissolved in DMSO or DMSO alone was preincubated with the HSET and microtubules for 10 min before 3 μM Ultra-Pure ATP was added to start the ATPase reaction for the 3 μM ATP HSET assay. For the 500 μM ATP HSET assay, the addition of 500 μM Ultra-Pure ATP was used. For the Eg5 ATPase assay, 4.8 μM Ultra-Pure ATP was used. All reactions were incubated at 25 °C for 80 min and then stopped by the addition of 5 μL of the ADP-Glo reagent. 10 μL of Kinase Detection Reagent was then added after a further 45 min of incubation. The luminescence was read after 45 min on a PheraStar FSX plate reader (BMG Labtech). The data processing was performed using Dotmatics Studies software package. Percentage inhibition was determined based on normalization to high controls (0% inhibition, all reagents with 100 nL of DMSO alone) and low controls (100% inhibition […], without HSET). The IC50 values for each compound were determined using a four-parameter logistic curve fit of % inhibition versus concentration.

In data set [2] the test system is centrosome-amplified (4NCA) DLD1 cells. In words: Multipolar spindle assay (4NCA cell line). In kind it is cell-based, human. Particulars: for increase in mitotic spindle multipolarity (4NCA): centrosome-amplified (4NCA) DLD1 cell line. An excerpt: (§2) The cellular models consisted of chromosomally stable human colon cancer DLD1 diploid (2N) and tetraploid (4N) cells, along with tetraploid centrosome -amplified (4NCA) DLD1 cells and DLD1 HSET knockout (KO) cells. DLD1 2N and 4N cells were generated and characterized as previously described.[27],[41],[42] In order to generate 4NCA cells, we used dihydro-cytochalasin B (DCB) to transiently block cytokinesis and induce tetraploidisation and centrosome amplification in DLD1 cells. Centrosome amplification in 4NCA cells is transient and therefore they were generated from 2N cells for each run of the assay.[27] The DLD1 HSET KO cells were knockout clones generated by CRISPR and validated by sequencing to have a homozygous deletion in the KIFC1 gene.
(§3) Inhibition of HSET-mediated clustering was measured using a phenotypic assay measuring the formation of multipolar metaphase spindles in DLD1 cells with (4NCA) or without (4N) centrosome amplification. 4NCA cells were generated by treating 2N DLD1 cells with 2 μΜ DCB for 24 h, washed, and released in growth media for 24 h. 4N and 4NCA DLD1 cells were plated in 96-well ibidi μ-Clear plates (IB-89626, ibidi) with a no. 1.5 polymer coverslip bottom with optimal imaging properties. To enrich the mitotic population, cells were first treated for 3.5 h with 8 μM pro-TAME (I-440-01M, R&D system), an inhibitor of APC/C that transiently arrests cells in metaphase without affecting the structure of the spindle. Following the initial arrest, cells were treated with HSET compounds in the presence of 8 μM MG-132 (S2619, SelleckChem), a proteasome inhibitor that helps to maintain the metaphase arrest, where the number of spindle poles/cell can be optimally quantified by an automated segmentation analysis.
(§4) Cells were then fixed in methanol and stained for 3 h for mitotic pole marker aurora A (1:1000 610939 mouse anti-IAK1, BD Biosciences) and phosphorylated histone H3 (1:1500 ab47297 anti-histone H3 pS10, Abcam) as a marker of mitotic cells in 1.5% FBS in PBS. Following primary antibody treatment, cells were incubated with secondary antibodies Alexa Fluor 488 goat antimouse and Alexa Fluor 555 goat antirabbit (1:1500, A11029 and A21429, respectively, Life Technologies) together with 1 μg/mL DAPI (D9542, Sigma) in 1.5% FBS in PBS. Image acquisition was performed at 10× using the GE INCELL 2200 High Content Imaging System (Cytiva) and analyzed using the InCell Investigator software. Mitotic cells were identified by high pHH3 staining and were scored as multipolar if they had more than two mitotic spindle poles. The percentage of multipolar mitoses was calculated by dividing the number of multipolar mitoses by the total of all visible mitoses in one well of a 96-well plate (n > 100 for each replicate, two replicates per concentration point).

Data set [3] deals with non-centrosome amplified DLD1 (4N) cells. In words: Multipolar spindle assay (4N cell line). In kind it is cell-based, human. The note with it: for % Multipolarity above baseline @ 15 mM (4N cells) / effect on multipolar mitoses (4N), in words: 15 μM; for % Multipolarity above baseline @ 15 mM (4N cells): supplementary CSV; for effect on multipolar mitoses (4N), in words: non-centrosome amplified DLD1 (4N) cell line; for % multipolarity above baseline @ 15 μM (4N cells): 4N DLD1 cells (Table 4).
Description: as §2, §3, §4

The target in data set [4] is T2, recombinant full-length HSET (Homo sapiens, UniProt Q9BW19).
T2 construct: 5 nM full-length human N-terminal His-tag HSET; His-tag (N)
T2 sequence (Q9BW19 1-673): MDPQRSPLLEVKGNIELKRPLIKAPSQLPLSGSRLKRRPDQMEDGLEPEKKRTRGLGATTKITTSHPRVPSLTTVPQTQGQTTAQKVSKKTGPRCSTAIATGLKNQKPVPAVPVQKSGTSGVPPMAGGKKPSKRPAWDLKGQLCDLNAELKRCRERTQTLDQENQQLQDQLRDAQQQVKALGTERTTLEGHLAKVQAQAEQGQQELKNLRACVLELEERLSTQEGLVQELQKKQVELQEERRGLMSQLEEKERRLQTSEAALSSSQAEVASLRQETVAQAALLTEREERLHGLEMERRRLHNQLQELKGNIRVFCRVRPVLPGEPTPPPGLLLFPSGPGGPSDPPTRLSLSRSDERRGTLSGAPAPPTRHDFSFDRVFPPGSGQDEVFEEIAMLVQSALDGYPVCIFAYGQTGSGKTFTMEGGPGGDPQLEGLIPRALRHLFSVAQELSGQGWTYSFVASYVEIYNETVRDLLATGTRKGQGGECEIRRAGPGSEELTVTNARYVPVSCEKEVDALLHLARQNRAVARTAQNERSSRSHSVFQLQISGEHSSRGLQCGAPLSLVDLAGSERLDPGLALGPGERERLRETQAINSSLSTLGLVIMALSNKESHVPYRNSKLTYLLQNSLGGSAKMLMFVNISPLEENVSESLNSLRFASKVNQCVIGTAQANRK
In words: ADP-Glo HSET assay (3 μM ATP), microtubule-stimulated ATPase. Type of data set: biochemical. The note with it: for IC50: preformed microtubules, 3 μM ATP, read-out: HSET ADP-Glo IC50. Summed up: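 His-tagged full-length HSET (5 nM) or GST-Eg5 motor domain (4 nM), with 70 μg/mL paclitaxel-stabilised microtubules in HEPES pH 6.8 buffer, was preincubated with compound for 10 min. ATP was then added (3 or 500 μM for HSET, 4.8 μM for Eg5), followed by 80 min at 25 °C and ADP-Glo luminescence. IC50 was fitted with a four-parameter logistic.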
Background: In ADP-Glo the light output rises with the ADP produced.

The target of data set [5] is T2, recombinant full-length HSET. In words: ADP-Glo HSET assay (500 μM ATP). In kind it is biochemical. The note with it: high ATP concentration of 500 μM; single determination or mean of two. The procedure:
as §1

The next data set relates to DLD1 cells (4NCA and 4N). In kind it is cell-based. The note with it: human. The procedure: as §3, §4
3. […]

Setting [6] is: 15 μM, 4NCA DLD1 cells (Table 4).
Where [7] appears, read: 15 µM, 4NCA cells, supplementary CSV.
The mark [8] stands for this setting: LE = −1.4Log(IC50 [M])/number of non-hydrogen atoms (Table 1).
The mark [9] stands for this setting: LLE = −Log(IC50 [M]) – cLogP (MoKa) (Table 1).
Where [10] appears, read: mean (±SD) n ≥ 3, >200 from a single determination (Table 1).

The term IC50 denotes the concentration at which inhibition is half-maximal. For `CCOC(=O)c1sc(NC(=O)CCNC(=O)c2cccc(-c3nnn(C)n3)c2)nc1C` [Compound 18, Ethyl 4-Methyl-2-(3-(3-(2-methyl-2H-tetrazol-5-yl)benzamido)propanamido)thiazole-5-carboxylate], the concentration for half-maximal inhibition (IC50) was more than 200000 nM in data set [1], 27 nM in data set [4] (mean (±SD) n ≥ 3 (Table 4)), 27 nM in data set [4] (setting [10]) and 86 nM in data set [5]. For the same compound, the “% multipolarity above baseline @ 15 μM (4NCA cells)” value in data set [2] (setting [6]) and in data set [2] (setting [7]) was 11% in each case. The “increase in mitotic spindle multipolarity (4NCA)” value in data set [2] (15 μM) was approximately 10%. Moreover, the “% Multipolarity above baseline @ 15 mM (4N cells)” value in data set [3] is listed as 0%. Further, the “effect on multipolar mitoses (4N), in words” value in data set [3] is “no increases in multipolar mitoses”. Also, the “% multipolarity above baseline @ 15 μM (4N cells)” value in data set [3] was found to be 0%. Moreover, the “ligand efficiency (LE)” value in data set [4] came out at 0.34. Further, the “lipophilic ligand efficiency (LLE)” value in data set [4] turned out to be 5.4. Moreover, in data set [4] (setting [8]), the LE turned out to be 0.34. Also, in data set [4] (setting [9]), the LLE was 5.4.

Consider `CCOC(=O)c1sc(NC(=O)CCNC(=O)c2cccc(-c3noc(C)n3)c2)cc1C` [Compound 26, Ethyl 3-Methyl-5-(3-(3-(5-methyl-1,2,4-oxadiazol-3-yl)benzamido)propanamido)thiophene-2-carboxylate], for which the concentration for half-maximal inhibition (IC50) in data set [1] was more than 200000 nM; in data set [4] (mean (±SD) n ≥ 3 (Table 4)) it was 93 nM; in data set [4] (mean (±SD) n ≥ 3, >200 from a single determination (Table 2)) it was 93 nM; in data set [5], 332 nM. The “% multipolarity above baseline @ 15 μM (4NCA cells)” value in data set [2] (setting [6]) and in data set [2] (setting [7]) was 13% throughout. In addition, the “increase in mitotic spindle multipolarity (4NCA)” value in data set [2] (15 μM) was approximately 10%. The “% Multipolarity above baseline @ 15 mM (4N cells)” value in data set [3] came out at 1%. Also, the “effect on multipolar mitoses (4N), in words” value in data set [3] is given as “no increases in multipolar mitoses”. Moreover, the “% multipolarity above baseline @ 15 μM (4N cells)” value in data set [3] turned out to be 1%. The LE in data set [4] (LE = −1.4Log(IC50 [M])/number of non-hydrogen atoms (Table 2)) turned out to be 0.32. Further, the LLE in data set [4] (LLE = −Log(IC50 [M]) – cLogP (MoKa) (Table 2)) amounted to 3.7.

As for `CCCc1cc(C(=O)N[C@H](Cc2ccc(-c3cccc(OC(F)(F)F)c3)nc2)C(=O)N[C@@H]2CCNC2)sc1C` [Compound 1, 5-Methyl-6N-((R)-1-oxo-1-((R)-pyrrolidin-3-ylamino)-3-(6-(3-(trifluoromethoxy)phenyl)pyridin-3-yl)propan-2-yl)-4-propylthiophene-2-carboxamide, reference compound], the IC50 was 35600 nM in data set [1], 171 nM in data set [4] (mean (±SD) n ≥ 3 (Table 4)), 171 nM in data set [4] (setting [10]) and 825 nM in data set [5]. Moreover, the “concentration at which cellular toxicity observed” value in the data set on DLD1 cells (4NCA and 4N) worked out at 6 µM. For the same compound, in data set [4] (setting [8]), the LE was 0.25. For the same compound, in data set [4] (setting [9]), the LLE turned out to be 1.5.
